Results on 12 molecules are retold here after ChEMBL document CHEMBL1201862, “PubChem BioAssay data set” (2004).

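1) Cells in 96-well plates. 2) Compound, 48 h, 5 concentrations. 3) Linear interpolation between surrounding doses. 4) Unreached endpoint = highest concentration. GI50 is the concentration that inhibits growth by half.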 Calls of active or inactive are those of the source. No stated cut-off is given here; in the data, active = GI50 up to about 1.1 µM and inactive = higher.

Some test systems named below: 786-0; CCRF-CEM; COLO 205; DU-145; HCT-116; K562; MCF7; NCI/ADR-RES; PC-3; RXF 393; SF-268; SK-MEL-28; SNB-19; T47D; UACC-257; UACC-62; UO-31; SR.
What all share (test): NCI tumour cell line growth inhibition, 48 h

In the case of `COc1ccc(/C=C/c2ccnc3ccccc23)c(OC)c1`, the GI50 in the experiment on 786-0 is 9.25 µM (inactive); in the experiment with CCRF-CEM it was 4.97 µM (inactive); in the experiment on COLO 205, 4.34 µM (inactive); in the experiment with DU-145 it was > 10 µM (inactive); with HCT-116, 3.56 µM (inactive); in the experiment with K562, 3.54 µM (inactive). The GI50 with MCF7 was 3.07 µM (inactive); in the experiment with NCI/ADR-RES, 3.86 µM (inactive); with PC-3, 8.38 µM (inactive); with RXF 393, > 10 µM (inactive); in the experiment with SF-268, > 10 µM (inactive); with SK-MEL-28, > 10 µM (inactive). Further, the GI50 was > 10 µM (inactive) in the experiment with SNB-19; > 10 µM (inactive) in the experiment with T47D; > 10 µM (inactive) in the experiment with UACC-257; 5.16 µM (inactive) with UACC-62; > 10 µM (inactive) in the experiment with UO-31.

On to `CCOC(=O)Cn1sc2ncc([N+](=O)[O-])cc2c1=O`, for which the GI50 in the experiment with 786-0 was 16.9 µM (inactive); in the experiment on CCRF-CEM, 2.07 µM (inactive); in the experiment with COLO 205, 13 µM (inactive); in the experiment on DU-145, > 100 µM (inactive); with HCT-116, 17.3 µM (inactive); in the experiment on K562, 2.84 µM (inactive). The GI50 in the experiment on MCF7 is 18.1 µM (inactive); with NCI/ADR-RES, 13.9 µM (inactive); in the experiment on PC-3, 14.8 µM (inactive); with RXF 393, 20 µM (inactive); with SF-268, 24.5 µM (inactive); in the experiment on SK-MEL-28, 15.1 µM (inactive). Also, the GI50 with SR is 4.02 µM (inactive); in the experiment with T47D, 16.5 µM (inactive); with UACC-257 it was 17.1 µM (inactive); in the experiment with UACC-62 it was 23 µM (inactive); in the experiment with UO-31 it was 10.1 µM (inactive).

Consider `CCOC(=O)[C@]12C(=C(c3ccccc3)O[C@H]3C=CCC[C@H]31)C(=O)C(=O)N2c1ccccc1`, for which the GI50 is > 100 µM (inactive) with 786-0; > 100 µM (inactive) in the experiment on COLO 205; > 100 µM (inactive) in the experiment with DU-145; > 100 µM (inactive) in the experiment on HCT-116; 17.5 µM (inactive) with K562; > 100 µM (inactive) in the experiment with MCF7. Besides, the GI50 in the experiment on NCI/ADR-RES was 17.1 µM (inactive); in the experiment with PC-3 it was 58.2 µM (inactive); in the experiment on RXF 393, > 100 µM (inactive); in the experiment with SF-268, > 100 µM (inactive); with SNB-19 it was > 100 µM (inactive); in the experiment on SR, 17.7 µM (inactive). Moreover, the GI50 with T47D, in the experiment on UACC-62 and with UO-31 was > 100 µM (inactive) each time.

`C=CCSC(C)=O`: the GI50 in the experiment with 786-0, with CCRF-CEM, with COLO 205, in the experiment with DU-145, with HCT-116 and with K562 was > 100 µM (inactive) each time. Besides, the GI50 in the experiment on MCF7, with NCI/ADR-RES, in the experiment on PC-3, in the experiment with SF-268, with SK-MEL-28 and in the experiment with SNB-19 was > 100 µM (inactive) each time. Also, the GI50 in the experiment with SR, in the experiment on T47D, with UACC-62 and in the experiment on UO-31 was > 100 µM (inactive) in each case.

In the case of `CC(=O)OC/C=C(\C)CCC(Br)C(C)(C)Br` (centres undefined), the GI50 in the experiment on 786-0, in the experiment on CCRF-CEM, in the experiment with COLO 205, in the experiment with DU-145, with HCT-116 and in the experiment with K562 was > 10 µM (inactive) in each case. Moreover, the GI50 in the experiment on MCF7, in the experiment on NCI/ADR-RES, in the experiment with PC-3, in the experiment with RXF 393, in the experiment with SF-268 and with SK-MEL-28 was > 10 µM (inactive) throughout. For the same molecule, the GI50 with SNB-19 is > 10 µM (inactive); with T47D, > 10 µM (inactive); with UACC-257, > 10 µM (inactive); with UACC-62, > 10 µM (inactive); with UO-31, 0.001 µM (active).

`CCCC1(CCC)c2cc(/C=N\O)ccc2-c2ccc(-c3ccc(C(C)(C)C)cc3)cc21`: the GI50 was 37.4 µM (inactive) in the experiment on 786-0; 29.2 µM (inactive) in the experiment on CCRF-CEM; > 100 µM (inactive) in the experiment on COLO 205; > 100 µM (inactive) in the experiment with DU-145; 22.6 µM (inactive) in the experiment on HCT-116; 45.7 µM (inactive) in the experiment on K562. Further, the GI50 is 25.6 µM (inactive) with MCF7; 53.8 µM (inactive) with NCI/ADR-RES; 59.6 µM (inactive) with PC-3; 56 µM (inactive) in the experiment on SF-268; 26.7 µM (inactive) in the experiment with SK-MEL-28; > 100 µM (inactive) in the experiment with SNB-19. The GI50 with SR is 25.9 µM (inactive); in the experiment with T47D, 57.5 µM (inactive); in the experiment on UACC-257, 93.1 µM (inactive); with UO-31 it was > 100 µM (inactive).

In the case of `CN(C)c1ccc(/C=C2\C[C@H]3[C@@H]4CC=C5C[C@@H](O)CC[C@]5(C)[C@H]4CC[C@]3(C)[C@H]2O)cc1`, the GI50 in the experiment with 786-0 was 18.1 µM (inactive); in the experiment on COLO 205 it was 11 µM (inactive); with DU-145 it was 34.1 µM (inactive); in the experiment with HCT-116, 6.59 µM (inactive); in the experiment with K562, 28 µM (inactive); in the experiment on MCF7 it was 17.4 µM (inactive). The GI50 in the experiment on NCI/ADR-RES was 18.4 µM (inactive); with PC-3 it was 13.1 µM (inactive); in the experiment on RXF 393, 25.5 µM (inactive); with SF-268 it was 17 µM (inactive); with SK-MEL-28, 20.4 µM (inactive); in the experiment on SNB-19, 15.7 µM (inactive). The GI50 in the experiment with SR was 21 µM (inactive); in the experiment with T47D it was 23.3 µM (inactive); in the experiment on UACC-257 it was 18.2 µM (inactive); in the experiment on UACC-62 it was 13.7 µM (inactive); with UO-31 it was 19.3 µM (inactive).

Turning to `Cn1c(N2CCCC2)c(C=O)c(=O)n(C)c1=O`, the GI50 in the experiment with 786-0, in the experiment on CCRF-CEM, in the experiment on COLO 205, in the experiment on DU-145, with HCT-116 and in the experiment on K562 was > 100 µM (inactive) in each case. The GI50 in the experiment on MCF7 is > 100 µM (inactive); in the experiment with NCI/ADR-RES it was > 100 µM (inactive); in the experiment on PC-3, > 100 µM (inactive); with RXF 393 it was > 100 µM (inactive); in the experiment on SF-268, 96.8 µM (inactive); in the experiment on SK-MEL-28, > 100 µM (inactive). The GI50 with SNB-19, in the experiment with T47D, in the experiment with UACC-257, with UACC-62 and in the experiment on UO-31 was > 100 µM (inactive) throughout.

Turning to `NNC(=O)CCCCCCCC(=O)O`, the GI50 in the experiment on 786-0, in the experiment on CCRF-CEM, in the experiment with COLO 205, in the experiment with DU-145, in the experiment on HCT-116 and in the experiment with K562 was > 100 µM (inactive) each time. Besides, the GI50 in the experiment on MCF7, in the experiment with NCI/ADR-RES, in the experiment on PC-3, with SK-MEL-28, in the experiment with SNB-19 and in the experiment with SR was > 100 µM (inactive) in each case. For the same molecule, the GI50 in the experiment with T47D, in the experiment on UACC-257, in the experiment with UACC-62 and with UO-31 was > 100 µM (inactive) in each case.

`Cc1ccccc1S(=O)(=O)OC1NS(=O)(=O)c2ccccc21` (centres undefined): the GI50 with 786-0, in the experiment on COLO 205, in the experiment on DU-145, with HCT-116, with K562 and in the experiment with MCF7 was > 100 µM (inactive) in each case. For the same molecule, the GI50 in the experiment with NCI/ADR-RES, with PC-3, in the experiment on RXF 393, with SF-268, in the experiment with SK-MEL-28 and in the experiment on SNB-19 was > 100 µM (inactive) throughout. The GI50 in the experiment on SR, with T47D, with UACC-257, in the experiment on UACC-62 and with UO-31 was > 100 µM (inactive) each time.

As to `Cc1nn(-c2ccccc2)c2nc3c(c(C)nn3-c3ccccc3)c(-c3ccc(C(F)(F)F)cc3)c12`, the GI50 is 60.1 µM (inactive) in the experiment on 786-0; > 100 µM (inactive) in the experiment on CCRF-CEM; > 100 µM (inactive) in the experiment on COLO 205; > 100 µM (inactive) in the experiment on DU-145; > 100 µM (inactive) in the experiment on HCT-116; > 100 µM (inactive) in the experiment with K562. In addition, the GI50 with MCF7 is > 100 µM (inactive); with NCI/ADR-RES, > 100 µM (inactive); in the experiment on PC-3 it was > 100 µM (inactive); with RXF 393 it was > 100 µM (inactive); in the experiment on SF-268 it was 44.7 µM (inactive); in the experiment with SK-MEL-28 it was > 100 µM (inactive). Also, the GI50 with SNB-19 is 96.2 µM (inactive); with T47D it was > 100 µM (inactive); with UACC-257, > 100 µM (inactive); in the experiment on UACC-62 it was > 100 µM (inactive); in the experiment with UO-31 it was > 100 µM (inactive).

On to `CN(C)CCn1c(=O)c2ccc(NCCNCCO)c3c(=O)c4ccccc4n(c1=O)c23`, for which the GI50 is 0.0149 µM (active) in the experiment on 786-0; < 0.01 µM (active) with CCRF-CEM; 0.0703 µM (active) with COLO 205; 0.0217 µM (active) with DU-145; 0.0492 µM (active) with HCT-116; 0.0245 µM (active) in the experiment with K562. The GI50 in the experiment on MCF7 is < 0.01 µM (active); in the experiment on NCI/ADR-RES, 1.72 µM (inactive); with PC-3 it was 0.182 µM (active); with SF-268 it was 0.0471 µM (active); in the experiment with SK-MEL-28 it was 0.815 µM (active); in the experiment on SNB-19 it was 0.182 µM (active). Besides, the GI50 was < 0.01 µM (active) in the experiment on SR; 0.129 µM (active) in the experiment with T47D; 0.368 µM (active) with UACC-257; 0.0467 µM (active) in the experiment with UACC-62; 0.126 µM (active) in the experiment on UO-31.
